From patent publication US20070128217A1 (priority 2003, published 2007)

What was measured:
[1] = system: rabbit serum obtained by immunizing a rabbit with the SARS-CoV strain Frankfurt 1; assay type: binding; parameters: Binding of a rabbit serum to linear peptides / Binding of a rabbit serum to looped peptides / Rabbit serum linear peptides / Rabbit serum looped peptides / Binding of a rabbit serum to linear peptides of protein N of SARS-CoV Urbani (Rabbit serum linear peptides) / Binding of a rabbit serum to looped/cyclic peptides of protein N of SARS-CoV Urbani (Rabbit serum looped peptides): unit not given here
[2] = system: antibodies in sera from SARS patients (sera 1a, 1b, 2, 6, 37, 62, London, SARS-yellow, SARS-green); assay type: binding, human; parameters: Binding of serum 6 to linear peptides of protein X1 of SARS-CoV Urbani / Binding of serum 37 to linear peptides of protein X1 of SARS-CoV Urbani / Binding of serum 6 to looped/cyclic peptide (PEPSCAN-ELISA) / Binding of serum 37 to looped/cyclic peptide (PEPSCAN-ELISA) / Binding of serum 37 to looped/cyclic peptides of protein X1 of SARS-CoV Urbani / Binding of serum 6 to linear peptides of protein X2 / Binding of serum 37 to linear peptides of protein X2 / Binding of serum 37 to looped/cyclic peptides of protein X2 of SARS-CoV Urbani / Binding of serum 6 to linear peptides of protein M of SARS-CoV Urbani / Binding of serum 37 to linear peptides of protein M of SARS-CoV Urbani / Binding of serum 6 to looped/cyclic peptides of protein M of SARS-CoV Urbani / Binding of serum 37 to looped/cyclic peptides of protein M of SARS-CoV Urbani / Binding of serum 6 to linear peptides of protein X3 of SARS-CoV Urbani / Binding of serum 37 to linear peptides of protein X3 of SARS-CoV Urbani / Binding of serum 37 to looped/cyclic peptides of protein X3 of SARS-CoV Urbani / Binding of serum 6 to linear peptides of protein X4 of SARS-CoV Urbani / Binding of serum 37 to linear peptides of protein X4 of SARS-CoV Urbani / Binding of serum 37 to looped/cyclic peptides of protein X4 of SARS-CoV Urbani / Binding of serum 6 to linear peptides of protein X5 of SARS-CoV Urbani / Binding of serum 37 to linear peptides of protein X5 of SARS-CoV Urbani / Binding of serum 37 to looped/cyclic peptides of protein X5 of SARS-CoV Urbani / Binding of serum 6 to linear peptides of protein N of SARS-CoV Urbani / Binding of serum 37 to linear peptides of protein N of SARS-CoV Urbani / Binding of serum 6 to linear peptide (PEPSCAN-ELISA) / Binding of serum 1a to looped/cyclic peptides of protein N of SARS-CoV Urbani / Binding of serum 1b to looped/cyclic peptides of protein N of SARS-CoV Urbani / Binding of serum 2 to looped/cyclic peptides of protein N of SARS-CoV Urbani / Binding of serum 6 to looped/cyclic peptides of protein N of SARS-CoV Urbani / Binding of serum 37 to looped/cyclic peptides of protein N of SARS-CoV Urbani / Binding of serum 62 to looped/cyclic peptides of protein N of SARS-CoV Urbani / Binding of serum London to looped/cyclic peptides of protein N of SARS-CoV Urbani / Binding of serum SARS-green to looped/cyclic peptides of protein N of SARS-CoV Urbani: unit not given here

| Sequence | Binding of a rabbit serum to linear peptides [1] | Recognition of the peptide by the rabbit serum [1] | Binding of serum 1a to linear peptides of protein X1 of SARS-CoV Urbani [2] | Binding of serum 1a to looped/cyclic peptide (PEPSCAN-ELISA) [2] | Binding of serum 1b to linear peptides of protein X1 of SARS-CoV Urbani [2] | Binding of serum 1b to looped/cyclic peptide (PEPSCAN-ELISA) [2] | Binding of serum 2 to linear peptides of protein X1 of SARS-CoV Urbani [2] | Binding of serum 2 to looped/cyclic peptide (PEPSCAN-ELISA) [2] | Binding of serum 6 to linear peptides of protein X1 of SARS-CoV Urbani [2] | Binding of serum 6 to looped/cyclic peptide (PEPSCAN-ELISA) [2] | Binding of serum 37 to linear peptides of protein X1 of SARS-CoV Urbani [2] | Binding of serum 37 to looped/cyclic peptide (PEPSCAN-ELISA) [2] | Binding of serum 62 to linear peptides of protein X1 of SARS-CoV Urbani [2] | Binding of serum 62 to looped/cyclic peptide (PEPSCAN-ELISA) [2] | Binding of serum London to linear peptides of protein X1 of SARS-CoV Urbani [2] | Binding of serum London to looped/cyclic peptide (PEPSCAN-ELISA) [2] | Binding of serum SARS-green to linear peptides of protein X1 of SARS-CoV Urbani [2] | Binding of serum SARS-green to looped/cyclic peptide (PEPSCAN-ELISA) [2] | Binding of serum SARS-yellow to linear peptides of protein X1 of SARS-CoV Urbani [2] | Binding of serum SARS-yellow to looped/cyclic peptide (PEPSCAN-ELISA) [2] | other results |
| --- | --- | --- | --- | --- | --- | --- | --- | --- | --- | --- | --- | --- | --- | --- | --- | --- | --- | --- | --- | --- | --- |
| LLIQQWIQFMMSRRR | 0.5 |  |  |  |  |  |  |  |  |  |  |  |  |  |  |  |  |  |  |  | Binding of a rabbit serum to looped peptides [1]: 0.6; Binding of serum 1a to linear peptides of protein X2 [2]: 0.7; Binding of serum 1a to looped/cyclic peptides of protein X2 of SARS-CoV Urbani [2]: 0.5; Binding of serum 1b to linear peptides of protein X2 [2]: 0.5; Binding of serum 1b to looped/cyclic peptides of protein X2 of SARS-CoV Urbani [2]: 0.5; Binding of serum 2 to linear peptides of protein X2 [2]: 0.5; Binding of serum 2 to looped/cyclic peptides of protein X2 of SARS-CoV Urbani [2]: 0.7; Binding of serum 6 to linear peptides of protein X2 [2]: 0.5; Binding of serum 6 to looped/cyclic peptides of protein X2 of SARS-CoV Urbani [2]: 0.3; Binding of serum 37 to linear peptides of protein X2 [2]: 0.6; Binding of serum 37 to looped/cyclic peptides of protein X2 of SARS-CoV Urbani [2]: 0.5; Binding of serum 62 to linear peptides of protein X2 [2]: 0.6; Binding of serum 62 to looped/cyclic peptides of protein X2 of SARS-CoV Urbani [2]: 0.7; Binding of serum London to linear peptides of protein X2 [2]: 0.4; Binding of serum London to looped/cyclic peptides of protein X2 of SARS-CoV Urbani [2]: 0.2; Binding of serum SARS-green to linear peptides of protein X2 [2]: 0.5; Binding of serum SARS-green to looped/cyclic peptides of protein X2 of SARS-CoV Urbani [2]: 0.3; Binding of serum SARS-yellow to linear peptides of protein X2 [2]: 0.8; Binding of serum SARS-yellow to looped/cyclic peptides of protein X2 of SARS-CoV Urbani [2]: 0.4 |
| QSATKIIALNKRWQL |  | recognized | 0.8 | 0.4 | 0.7 | 0.4 | 0.7 | 0.5 | 0.7 | 0.6 | 0.7 | 0.6 | 0.8 | 0.6 | 0.4 | 0.4 | 0.4 | 0.4 | 0.5 | 0.4 |  |
| RTLSYYKLGASQRVG |  |  |  |  |  |  |  |  |  |  |  |  |  |  |  |  |  |  |  |  | Rabbit serum linear peptides [1]: 0.5; Rabbit serum looped peptides [1]: 1.0; Binding of serum 1a to linear peptides of protein M of SARS-CoV Urbani [2]: 0.7; Binding of serum 1a to looped/cyclic peptides of protein M of SARS-CoV Urbani [2]: 0.8; Binding of serum 1b to linear peptides of protein M of SARS-CoV Urbani [2]: 0.6; Binding of serum 1b to looped/cyclic peptides of protein M of SARS-CoV Urbani [2]: 0.5; Binding of serum 2 to linear peptides of protein M of SARS-CoV Urbani [2]: 0.7; Binding of serum 2 to looped/cyclic peptides of protein M of SARS-CoV Urbani [2]: 0.7; Binding of serum 6 to linear peptides of protein M of SARS-CoV Urbani [2]: 0.8; Binding of serum 6 to looped/cyclic peptides of protein M of SARS-CoV Urbani [2]: 1.5; Binding of serum 37 to linear peptides of protein M of SARS-CoV Urbani [2]: 0.5; Binding of serum 62 to linear peptides of protein M of SARS-CoV Urbani [2]: 0.5; Binding of serum London to linear peptides of protein M of SARS-CoV Urbani [2]: 0.3; Binding of serum London to looped/cyclic peptides of protein M of SARS-CoV Urbani [2]: 1.0; Binding of serum SARS-green to linear peptides of protein M of SARS-CoV Urbani [2]: 0.5; Binding of serum SARS-green to looped/cyclic peptides of protein M of SARS-CoV Urbani [2]: 0.4; Binding of serum SARS-yellow to linear peptides of protein M of SARS-CoV Urbani [2]: 0.4; Binding of serum SARS-yellow to looped/cyclic peptides of protein M of SARS-CoV Urbani [2]: 0.8 |
| SATKIIALNKRWQLA |  | recognized | 0.8 | 1.2 | 0.6 | 0.8 | 0.6 | 1.2 | 0.7 | 0.9 | 0.7 | 1.0 | 0.8 | 1.5 | 0.4 | 0.5 | 0.3 | 1.0 | 0.5 | 0.9 |  |
| TKIIALNKRWQLALY |  | recognized | 0.7 | 0.6 | 0.5 | 0.4 | 0.6 | 0.5 | 1.0 | 0.5 | 0.7 | 0.6 | 0.7 | 0.6 | 0.3 | 0.3 | 0.2 | 0.3 | 0.5 | 0.5 |  |
| TTVYHITVSQIQLSL | 0.7 |  |  |  |  |  |  |  |  |  |  |  |  |  |  |  |  |  |  |  | Binding of a rabbit serum to looped peptides [1]: 0.4; Binding of serum 1a to linear peptides of protein X2 [2]: 0.7; Binding of serum 1a to looped/cyclic peptides of protein X2 of SARS-CoV Urbani [2]: 0.5; Binding of serum 1b to linear peptides of protein X2 [2]: 0.5; Binding of serum 1b to looped/cyclic peptides of protein X2 of SARS-CoV Urbani [2]: 0.5; Binding of serum 2 to linear peptides of protein X2 [2]: 0.5; Binding of serum 2 to looped/cyclic peptides of protein X2 of SARS-CoV Urbani [2]: 0.3; Binding of serum 6 to linear peptides of protein X2 [2]: 0.5; Binding of serum 6 to looped/cyclic peptides of protein X2 of SARS-CoV Urbani [2]: 0.3; Binding of serum 37 to linear peptides of protein X2 [2]: 0.7; Binding of serum 37 to looped/cyclic peptides of protein X2 of SARS-CoV Urbani [2]: 0.4; Binding of serum 62 to linear peptides of protein X2 [2]: 0.6; Binding of serum 62 to looped/cyclic peptides of protein X2 of SARS-CoV Urbani [2]: 0.5; Binding of serum London to linear peptides of protein X2 [2]: 0.4; Binding of serum London to looped/cyclic peptides of protein X2 of SARS-CoV Urbani [2]: 0.2; Binding of serum SARS-green to linear peptides of protein X2 [2]: 0.1; Binding of serum SARS-green to looped/cyclic peptides of protein X2 of SARS-CoV Urbani [2]: 0.2; Binding of serum SARS-yellow to linear peptides of protein X2 [2]: 0.8; Binding of serum SARS-yellow to looped/cyclic peptides of protein X2 of SARS-CoV Urbani [2]: 0.4 |
